This test concerns T1, rainbow trout liver rhodanese (thiosulphate: cyanide sulphurtransferase, EC 2.8.1.1).
T1 construct: gene tst
Conditions: 50 mM KCN, 25 mM citrate-phosphate-borate pH 10.5, 25°C; apparent; partially purified enzyme.

Molecules are shown by their SMILES.

As a reminder, the Km is the substrate concentration at which the rate is half of its maximum.

`O=S(O)(O)=S` [Na2S2O3]: the Km amounted to 19.8 mM.

The values above are taken from publication PMC3354555, “Partial Purification and Characterization of Rhodanese from Rainbow Trout (Oncorhynchus mykiss) Liver” (The Scientific World Journal, 2012).
